Measurements: patent publication US20230002334A1, “TRPM8 MODULATORS” (Givaudan SA, priority 2019, published 2023)

biological target: T1, hTRPM8 (Homo sapiens, UniProt Q7Z2W7); assay: Assay on TRPM8 modulators: calcium imaging (Fluo-4, Flexstation) in HEK293 cell line stably expressing hTRPM8; type: cell-based; conditions: HEK293 cells stably expressing hTRPM8, calcium influx, sigmoidal dose-response fit; read-out: EC50
T1 construct: expressed in transfected cells
Protocol: A HEK293 cell line stably expressing hTRPM8 was generated according to Klein et al., (Chem. Senses 36: 649-658, 2011) and receptor activation was monitored by calcium imaging in a Flexstation. For Ca-imaging assays of TRPM8 channel activation, cells were seeded on day 0 at a density of 12000 cells per well in Dulbecco's modified Eagle medium (DMEM) containing 9% foetal bovine serum in black, clear bottom 96-well plates that had been coated with 0.001% polyethyleneimine (molecular weight=60 000, Acros Organics). On day 2, agonists were evaluated via calcium imaging using Fluo-4. Briefly, growth medium was discarded, and the cells were incubated in the dark for 1 h at 37° C. in 50 μL loading buffer consisting of 2.7 μM Fluo-4 AM (Invitrogen) and […] probenecid (Sigma-Aldrich) in DMEM (without serum). After incubation, the plates were washed five times with 100 μL of assay buffer (in mM: 130 NaCl, 5 KCl, 10 HEPES, 2 CaCl2, and 10 glucose, pH7.4.) and further incubated in the dark at room temperature for 30 min. The cells were then washed five times with 100 μL assay buffer and then calcium influx to serial dilutions of inventive compounds were measured in a Flexstation 3 (Molecular Devices). Receptor activation was initiated following addition of 20 μl of a 10-fold concentrated ligand stock solution, which is also prepared in assay buffer. Fluorescence was continuously monitored for 15 seconds prior to ligand addition and for 105 seconds after ligand addition, for a total of 120 seconds. Maximal receptor activation in relation to solvent control and relative to 31.6 μM menthol is determined. Data from serial dilutions were processed with a KNIME workflow to fit a sigmoidal dose-response curve and to extrapolate EC50 values.

T1 sequence (Q7Z2W7 whole entry): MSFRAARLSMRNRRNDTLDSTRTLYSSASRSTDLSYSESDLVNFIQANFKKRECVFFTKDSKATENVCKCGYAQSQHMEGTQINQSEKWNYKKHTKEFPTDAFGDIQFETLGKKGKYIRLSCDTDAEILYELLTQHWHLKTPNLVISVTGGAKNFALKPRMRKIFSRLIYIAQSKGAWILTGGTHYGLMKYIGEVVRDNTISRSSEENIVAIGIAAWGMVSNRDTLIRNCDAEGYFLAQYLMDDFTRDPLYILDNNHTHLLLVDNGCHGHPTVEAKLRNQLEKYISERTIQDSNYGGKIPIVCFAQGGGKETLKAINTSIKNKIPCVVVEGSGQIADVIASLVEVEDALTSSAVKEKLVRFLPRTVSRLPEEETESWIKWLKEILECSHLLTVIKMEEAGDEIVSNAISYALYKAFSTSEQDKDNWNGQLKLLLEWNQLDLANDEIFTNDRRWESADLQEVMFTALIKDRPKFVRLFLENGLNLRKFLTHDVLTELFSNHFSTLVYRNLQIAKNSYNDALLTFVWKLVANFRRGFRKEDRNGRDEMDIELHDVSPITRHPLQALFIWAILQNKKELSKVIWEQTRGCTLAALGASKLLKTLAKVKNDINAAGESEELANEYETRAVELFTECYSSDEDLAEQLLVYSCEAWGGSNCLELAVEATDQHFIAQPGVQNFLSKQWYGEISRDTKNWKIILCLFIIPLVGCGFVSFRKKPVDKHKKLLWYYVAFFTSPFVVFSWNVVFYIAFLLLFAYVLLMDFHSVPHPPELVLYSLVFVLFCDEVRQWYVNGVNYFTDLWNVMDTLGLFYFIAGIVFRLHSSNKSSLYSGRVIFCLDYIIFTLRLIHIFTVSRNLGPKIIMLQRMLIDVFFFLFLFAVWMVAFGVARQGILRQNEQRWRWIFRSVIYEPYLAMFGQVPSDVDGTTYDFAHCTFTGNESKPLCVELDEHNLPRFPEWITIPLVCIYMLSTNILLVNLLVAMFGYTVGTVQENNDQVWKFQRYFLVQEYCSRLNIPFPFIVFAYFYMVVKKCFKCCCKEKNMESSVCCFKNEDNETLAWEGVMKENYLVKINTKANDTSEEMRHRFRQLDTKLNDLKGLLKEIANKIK

Compound | EC50
C[C@H]1C[C@@](C)(c2cccc3ccccc23)C[C@@H]2[C@@H]1N(C)OC2(C)C (racemic) [Compound 44, rac-(3aR,5R,7S,7aR)-1,3,3,5,7-pentamethyl-5-(naphthalen-1-yl)octahydrobenzo[c]isoxazole] | 300 to 1000 nM
CC(C)=CC[C@]1(C)CC[C@@H]2[C@@H](C1)C(C)(C)ON2C (racemic) [Compound 113, rac-(3aR,5S,7aR)-1,3,3,5-tetramethyl-5-(3-methylbut-2-en-1-yl)octahydrobenzo[c]isoxazole] | 300 to 1000 nM
Cc1cccc(C)c1[C@@]1(C)C[C@@H]2[C@@H]([C@@H](C)C1)N(C)OC2(C)C (racemic) [Compound 76, rac-(3aR,5R,7S,7aR)-5-(2,6-dimethylphenyl)-1,3,3,5,7-pentamethyloctahydrobenzo[c]isoxazole] | 300 to 1000 nM
CC1CC(C)[C@@H]2[C@@H](C1C)C(C)(C)ON2C (mixture of isomers) [Compound 114, rac-(3aR,7aR)-1,3,3,4,5,7-hexamethyloctahydrobenzo[c]isoxazole] | 1000 to 35000 nM
CCC1(CC)C[C@@H]2[C@@H]([C@@H](C)C1)N(C)OC2(C)C (racemic) [Compound 118, rac-(3aR,7S,7aR)-5,5-diethyl-1,3,3,7-tetramethyloctahydrobenzo[c]isoxazole] | 1000 to 35000 nM
CC(C)=CC[C@H]1C[C@@H]2[C@@H]([C@@H](C)C1)N(C(C)C)OC2(C)C (racemic) [Compound 62, rac-(3aR,5R,7S,7aR)-1-isopropyl-3,3,7-trimethyl-5-(3-methylbut-2-en-1-yl)octahydrobenzo[c]isoxazole] | 300 to 1000 nM
CC(C)c1cccc([C@@]2(C)C[C@@H]3[C@@H]([C@@H](C)C2)N(C)OC3(C)C)c1 (racemic) [Compound 93, rac-(3aR,5R,7S,7aR)-5-(3-isopropylphenyl)-1,3,3,5,7-pentamethyloctahydrobenzo[c]isoxazole] | 1000 to 35000 nM
CC1CC(C)C2C(C1)C1(CCCC1)ON2C (centres unmarked) [Compound 8, 1,5,7-trimethylhexahydro-1H-spiro[benzo[c]isoxazole-3,1′-cyclopentane]] | 1000 to 35000 nM
Cc1ccc(C(F)(F)F)cc1[C@@]1(C)C[C@@H]2[C@@H]([C@@H](C)C1)N(C)OC2(C)C (racemic) [Compound 39, rac-(3aR,5R,7S,7aR)-1,3,3,5,7-pentamethyl-5-(2-methyl-5-(trifluoromethyl)phenyl)octahydrobenzo[c]isoxazole] | 300 to 1000 nM
C[C@H]1C[C@@](C)(c2ccc(C(C)(C)C)cc2)C[C@@H]2[C@@H]1N(C)OC2(C)C (racemic) [Compound 95, rac-(3aR,5R,7S,7aR)-5-(4-(tert-butyl)phenyl)-1,3,3,5,7-pentamethyloctahydrobenzo[c]isoxazole] | 1000 to 35000 nM
CC(C)=CCC1(C)CC(C)C2C(C1)C(C)(C)ON2C(C)C (centres unmarked) [Compound 10, 1-isopropyl-3,3,5,7-tetramethyl-5-(3-methylbut-2-en-1-yl)octahydrobenzo[c]isoxazole] | 300 to 1000 nM
CC1CC(C)C2C(C1)C(C)(C)ON2C(C)C (centres unmarked) [Compound 11, 1-isopropyl-3,3,5,7-tetramethyloctahydrobenzo[c]isoxazol-1-ium chloride] | 300 to 1000 nM
COc1cc(OC)cc([C@@]2(C)C[C@@H]3[C@@H]([C@@H](C)C2)N(C)OC3(C)C)c1 (racemic) [Compound 86, rac-(3aR,5R,7S,7aR)-5-(3,5-dimethoxyphenyl)-1,3,3,5,7-pentamethyloctahydrobenzo[c]isoxazole] | 1000 to 35000 nM
CCc1ccccc1[C@H]1C[C@@H]2[C@@H]([C@@H](C)C1)N(C)OC2(C)C (racemic) [Compound 79, rac-(3aR,5R,7S,7aR)-5-(2-ethylphenyl)-1,3,3,7-tetramethyloctahydrobenzo[c]isoxazole] | 1000 to 35000 nM

Continued, values first:

EC50 | Compound
50 to 300 nM | Cc1cc(F)ccc1[C@H]1C[C@@H]2[C@@H]([C@@H](C)C1)N(C)OC2(C)C (racemic) [Compound 101, rac-(3aR,5R,7S,7aR)-5-(4-fluoro-2-methylphenyl)-1,3,3,7-tetramethyloctahydrobenzo[c]isoxazole]
< 50 nM | CCN1OC(C)(C)[C@@H]2C[C@](C)(c3ccccc3C)C[C@H](C)[C@H]21 (racemic) [Compound 54, rac-(3aR,5R,7S,7aR)-1-ethyl-3,3,5,7-tetramethyl-5-(o-tolyl)octahydrobenzo[c]isoxazole]
50 to 300 nM | Cc1cc([C@@]2(C)C[C@@H]3[C@@H]([C@@H](C)C2)N(C)OC3(C)C)cs1 (racemic) [Compound 42, rac-(3aR,5R,7S,7aR)-1,3,3,5,7-pentamethyl-5-(5-methylthiophen-3-yl)octahydrobenzo[c]isoxazole]
< 50 nM | Cc1ccc(C)c([C@@]2(C)C[C@@H]3[C@@H]([C@@H](C)C2)N(C)OC3(C)C)c1 (racemic) [Compound 74, rac-(3aR,5R,7S,7aR)-5-(2,5-dimethylphenyl)-1,3,3,5,7-pentamethyloctahydrobenzo[c]isoxazole]
50 to 300 nM | CC(C)CC[C@@]1(C)C[C@@H]2[C@@H]([C@@H](C)C1)N(C(C)C)OC2(C)C (racemic) [Compound 112, rac-(3aR,5R,S,7aR)-5-isopentyl-1-isopropyl-3,3,5,7-tetramethyloctahydrobenzo[c]isoxazole]
50 to 300 nM | COc1ccccc1[C@@]1(C)C[C@@H]2[C@@H]([C@@H](C)C1)N(C)OC2(C)C (racemic) [Compound 82, rac-(3aR,5R,7S,7aR)-5-(2-methoxyphenyl)-1,3,3,5,7-pentamethyloctahydrobenzo[c]isoxazole]
50 to 300 nM | C[C@H]1C[C@@](C)(c2ccc(C#N)cc2)C[C@@H]2[C@@H]1N(C)OC2(C)C (racemic) [Compound 131, rac-4-((3aR,5R,7S,7aR)-1,3,3,5,7-pentamethyloctahydrobenzo[c]isoxazol-5-yl)benzonitrile]
50 to 300 nM | Cc1c(Cl)cccc1[C@@]1(C)C[C@@H]2[C@@H]([C@@H](C)C1)N(C)OC2(C)C (racemic) [Compound 89, rac-(3aR,5R,7S,7aR)-5-(3-chloro-2-methylphenyl)-1,3,3,5,7-pentamethyloctahydrobenzo[c]isoxazole]
50 to 300 nM | C[C@H]1C[C@@](C)(c2cccc(F)c2)C[C@@H]2[C@@H]1N(C)OC2(C)C (racemic) [Compound 92, rac-(3aR,5R,7S,7aR)-5-(3-fluorophenyl)-1,3,3,5,7-pentamethyloctahydrobenzo[c]isoxazole]
50 to 300 nM | COc1ccccc1[C@@]1(C)C[C@@H]2[C@@H]([C@@H](C)C1)N(C(C)C)OC2(C)C (racemic) [Compound 65, rac-(3aR,5R,7S,7aR)-1-isopropyl-5-(2-methoxyphenyl)-3,3,5,7-tetramethyloctahydrobenzo[c]isoxazole]
50 to 300 nM | Cc1cc(Cl)ccc1[C@H]1C[C@@H]2[C@@H]([C@@H](C)C1)N(C(C)C)OC2(C)C (racemic) [Compound 98, rac-(3aR,5R,7S,7aR)-5-(4-chloro-2-methylphenyl)-1-isopropyl-3,3,7-trimethyloctahydrobenzo[c]isoxazole]
50 to 300 nM | Cc1ccc(C#N)c([C@@]2(C)C[C@@H]3[C@@H]([C@@H](C)C2)N(C)OC3(C)C)c1 (racemic) [Compound 134, rac-4-methyl-2-((3aR,5R,7S,7aR)-1,3,3,5,7-pentamethyloctahydrobenzo[c]isoxazol-5-yl)benzonitrile]
50 to 300 nM | Cc1cc(C#N)ccc1[C@@]1(C)C[C@@H]2[C@@H]([C@@H](C)C1)N(C)OC2(C)C (racemic) [Compound 130, rac-3-methyl-4-((3aR,5R,7S,7aR)-1,3,3,5,7-pentamethyloctahydrobenzo[c]isoxazol-5-yl)benzonitrile]
50 to 300 nM | Cc1ccccc1[C@@]1(C)C[C@@H]2[C@@H]([C@@H](C)C1)N(C(C)C)OC2(C)C (racemic) [Compound 59, rac-(3aR,5R,7S,7aR)-1-isopropyl-3,3,5,7-tetramethyl-5-(o-tolyl)octahydrobenzo[c]isoxazole]
< 50 nM | COc1ccc(C#N)cc1[C@H]1C[C@@H]2[C@@H]([C@@H](C)C1)N(C(C)C)OC2(C)C (racemic) [Compound 128, rac-3-((3aR,5R,7S,7aR)-1-isopropyl-3,3,7-trimethyloctahydrobenzo[c]isoxazol-5-yl)-4-methoxybenzonitrile]
< 50 nM | Cc1ccc(F)cc1[C@@]1(C)C[C@@H]2[C@@H]([C@@H](C)C1)N(C)OC2(C)C (racemic) [Compound 107, rac-(3aR,5R,7S,7aR)-5-(5-fluoro-2-methylphenyl)-1,3,3,5,7-pentamethyloctahydrobenzo[c]isoxazole]
50 to 300 nM | Cc1cc(C)c([C@@]2(C)C[C@@H]3[C@@H]([C@@H](C)C2)N(C)OC3(C)C)cc1C (racemic) [Compound 38, rac-(3aR,5R,7S,7aR)-1,3,3,5,7-pentamethyl-5-(2,4,5-trimethylphenyl)octahydrobenzo[c]isoxazole]
50 to 300 nM | C[C@H]1C[C@@](C)(c2ccc(F)cc2F)C[C@@H]2[C@@H]1N(C)OC2(C)C (racemic) [Compound 70, rac-(3aR,5R,7S,7aR)-5-(2,4-difluorophenyl)-1,3,3,5,7-pentamethyloctahydrobenzo[c]isoxazole]
